Laboratory results taken from PubChem BioAssay AID248 (DTP/NCI, 2004).
Values joined by “and” are separate entries in the source; they are usually repeats but may differ in a detail not shown here. Equal entries are not always repeated. Toxic doses and inconclusive results are not listed. No stated cut-off is given here; in the data, active means T/C of 150% or more; inactive means T/C below 125%.

System: L1210 leukemia ip in BDF1 mice, survival T/C
Assay: NCI In Vivo Anticancer Drug Screen. Data for tumor model L1210 Leukemia (intraperitoneal) in B6D2F1 (BDF1) mice
Conditions: endpoint: mean survival time, higher = longer survival
Method in brief: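 Mice bearing the transplanted tumor received compound or vehicle. Survival of the treated group was divided by that of the vehicle-treated control group to give the ratio.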

[1] = dose: 100.0 mg/kg/injection, schedule: Q04DX003 (ip), vehicle: saline with Tween-80
[2] = dose: 200.0 mg/kg/injection, schedule: Q04DX003 (ip), vehicle: saline with Tween-80
[3] = dose: 400.0 mg/kg/injection, schedule: Q04DX003 (ip), vehicle: saline with Tween-80
[4] = dose: 100.0 mg/kg/injection, schedule: Q04DX003 (ip), vehicle: Klucel (hydroxypropylcellulose) (HPC)
[5] = dose: 200.0 mg/kg/injection, schedule: Q04DX003 (ip), vehicle: Klucel (hydroxypropylcellulose) (HPC)
[6] = dose: 400.0 mg/kg/injection, schedule: Q04DX003 (ip), vehicle: Klucel (hydroxypropylcellulose) (HPC)
[7] = dose: 100.0 mg/kg/injection, schedule: Q01DX009 (ip), vehicle: saline
[8] = dose: 100.0 mg/kg/injection, schedule: Q04DX003 (ip), vehicle: saline
[9] = dose: 200.0 mg/kg/injection, schedule: Q01DX009 (ip), vehicle: saline
[10] = dose: 200.0 mg/kg/injection, schedule: Q04DX003 (ip), vehicle: saline
[11] = dose: 400.0 mg/kg/injection, schedule: Q01DX009 (ip), vehicle: saline
[12] = dose: 400.0 mg/kg/injection, schedule: Q04DX003 (ip), vehicle: saline
[13] = dose: 100.0 mg/kg/injection, schedule: Q01DX009 (ip), vehicle: saline with Tween-80
[14] = dose: 200.0 mg/kg/injection, schedule: Q01DX009 (ip), vehicle: saline with Tween-80
[15] = dose: 100.0 mg/kg/injection, schedule: Q04DX002 (ip), vehicle: saline with Tween-80
[16] = dose: 200.0 mg/kg/injection, schedule: Q04DX002 (ip), vehicle: saline with Tween-80
[17] = dose: 400.0 mg/kg/injection, schedule: Q04DX002 (ip), vehicle: saline with Tween-80
[18] = dose: 100.0 mg/kg/injection, schedule: Q01DX001 (ip), vehicle: saline
[19] = dose: 200.0 mg/kg/injection, schedule: Q01DX001 (ip), vehicle: saline
[20] = dose: 400.0 mg/kg/injection, schedule: Q01DX001 (ip), vehicle: saline
[21] = dose: 400.0 mg/kg/injection, schedule: Q01DX009 (ip), vehicle: saline with Tween-80
[22] = dose: 50.0 mg/kg/injection, schedule: Q01DX001 (ip), vehicle: saline

Measured: T/C

O=[N+]([O-])c1ccc(N/N=C(/CCCCl)c2ccccc2)c([N+](=O)[O-])c1
inactive: [1] 96 % of control | [2] 95 % of control | [3] 91 % of control

O=Cc1cc(O)c(O)c(O)c1
inactive: dose: 50.0 mg/kg/injection, schedule: Q01DX001 (ip), vehicle: other 103 % of control | dose: 100.0 mg/kg/injection, schedule: Q01DX001 (ip), vehicle: other 101 % of control | dose: 200.0 mg/kg/injection, schedule: Q01DX001 (ip), vehicle: other 101 % of control | dose: 400.0 mg/kg/injection, schedule: Q01DX001 (ip), vehicle: other 104 % of control

CC1CC(C)(C)N=C(CCC2CCCC23OCCO3)O1 (stereo unspecified)
inactive: dose: 100.0 mg/kg/injection, schedule: Q01DX009 (ip), vehicle: saline sonified 98 % of control | dose: 100.0 mg/kg/injection, schedule: Q04DX003 (ip), vehicle: saline sonified 101 % of control | dose: 200.0 mg/kg/injection, schedule: Q01DX009 (ip), vehicle: saline sonified 98 % of control | dose: 200.0 mg/kg/injection, schedule: Q04DX003 (ip), vehicle: saline sonified 101 % of control | dose: 400.0 mg/kg/injection, schedule: Q01DX009 (ip), vehicle: saline sonified 94 % of control | dose: 400.0 mg/kg/injection, schedule: Q04DX003 (ip), vehicle: saline sonified 101 % of control

Cc1ccc(NC(=O)Nc2ccc(Nc3ccccc3)cc2)c([N+](=O)[O-])c1
inactive: [4] 94 % of control | [5] 90 % of control | [6] 90 % of control

COc1ccc(/C=C2\CCC3C(=O)CCCC3(C)C2=O)cc1 (stereo unspecified)
inactive: [7] 95 % of control | [8] 100 % of control | [9] 104 % of control | [10] 117 % of control | [11] 101 % of control | [12] 104 % of control

CC(C)(C)C(C)(O)C(=O)O (stereo unspecified)
inactive: dose: 50.0 mg/kg/injection, schedule: Q01DX009 (ip), vehicle: saline with Tween-80 93 % of control | [13] 97 % of control | [14] 93 % of control

CCCCCCCCC(=O)NCc1ccc(O)c(OC)c1
inactive: dose: 1.56 mg/kg/injection, schedule: Q01DX009 (ip), vehicle: saline 93 % of control | dose: 3.12 mg/kg/injection, schedule: Q01DX009 (ip), vehicle: saline 101 % of control | dose: 6.25 mg/kg/injection, schedule: Q01DX009 (ip), vehicle: saline 90 % of control

CCO/C=C1\SC(=S)N(c2cccc(C)c2)C1=O
inactive: dose: 100.0 mg/kg/injection, schedule: Q01DX009 (ip), vehicle: Klucel (hydroxypropylcellulose) (HPC) 112 % of control | [4] 101 % of control | dose: 200.0 mg/kg/injection, schedule: Q01DX009 (ip), vehicle: Klucel (hydroxypropylcellulose) (HPC) 87 % of control | [5] 113 % of control | [6] 95 % of control

O=C(CCl)N1C(=O)CC(c2ccccc2)C1=O (stereo unspecified)
inactive: [15] 101 % of control | [16] 97 % of control | [17] 95 % of control

CC1CC(C)(C)N/C(=C/C(=O)N2Cc3cc4ccccc4nc3C2)O1 (stereo unspecified)
inactive: dose: 100.0 mg/kg/injection, schedule: Q01DX001 (ip), vehicle: Klucel (hydroxypropylcellulose) (HPC) 86 % of control | dose: 400.0 mg/kg/injection, schedule: Q01DX001 (ip), vehicle: Klucel (hydroxypropylcellulose) (HPC) 88 % of control

COc1ccc(/C=C2\NC(=O)NC2=O)cc1
inactive: [18] 98 % of control | [19] 93 % of control | [20] 95 % of control

O=CN=C(CS(=O)(=O)O)c1ccccc1
inactive: dose: 50.0 mg/kg/injection, schedule: Q04DX003 (ip), vehicle: saline 103 % of control | [8] 108 % of control | [10] 100 % of control | [12] 102 % of control

Cc1ccc(Cl)cc1NC(=O)Nc1ccccc1O
inactive: dose: 100.0 mg/kg/injection, schedule: Q01DX001 (ip), vehicle: saline with Tween-80 95 % of control | [13] 94 % of control and 97 % of control | [15] 94 % of control and 95 % of control | [1] 106 % of control | dose: 200.0 mg/kg/injection, schedule: Q01DX001 (ip), vehicle: saline with Tween-80 95 % of control | [14] 94 % of control and 92 % of control | [16] 94 % of control and 106 % of control | [2] 103 % of control | dose: 400.0 mg/kg/injection, schedule: Q01DX001 (ip), vehicle: saline with Tween-80 93 % of control | [21] 109 % of control and 115 % of control | [17] 93 % of control and 91 % of control | [3] 94 % of control

COC1OCC(NC(C)=O)C(O)C1O (stereo unspecified)
inactive: [22] 102 % of control | [18] 102 % of control | [19] 100 % of control | [20] 107 % of control

NC(N)=Nc1ccc(-c2ccc(N=C(N)N)cc2)cc1
inactive: dose: 12.5 mg/kg/injection, schedule: Q01DX Z (oral), vehicle: saline 97 % of control | dose: 25.0 mg/kg/injection, schedule: Q01DX Z (oral), vehicle: saline 106 % of control | dose: 50.0 mg/kg/injection, schedule: Q01DX Z (oral), vehicle: saline 101 % of control | dose: 100.0 mg/kg/injection, schedule: Q01DX Z (oral), vehicle: saline 105 % of control | dose: 200.0 mg/kg/injection, schedule: Q01DX Z (oral), vehicle: saline 100 % of control

COc1ccc(C(=NO)c2ccc(OC)cc2)cc1
inactive: [7] 102 % of control | [8] 104 % of control | [9] 102 % of control | [10] 93 % of control | [11] 107 % of control | [12] 95 % of control

O=S(=O)(/C=C/c1ccccc1)c1ccc(F)cc1
inactive: dose: 100.0 mg/kg/injection, schedule: Q01DX001 (ip), vehicle: acetone 97 % of control | dose: 100.0 mg/kg/injection, schedule: Q01DX009 (ip), vehicle: acetone 88 % of control | dose: 200.0 mg/kg/injection, schedule: Q01DX001 (ip), vehicle: acetone 95 % of control | dose: 400.0 mg/kg/injection, schedule: Q01DX001 (ip), vehicle: acetone 95 % of control

Oc1ccc(-c2ccccc2)cc1Br
inactive: [1] 101 % of control | [2] 111 % of control

O=Cc1ccc2ccc3cccc4ccc1c2c34
inactive: [15] 98 % of control | [16] 95 % of control | [17] 95 % of control

COCCOc1nccc(N)n1
inactive: dose: 25.0 mg/kg/injection, schedule: Q01DX001 (ip), vehicle: saline 97 % of control | [22] 97 % of control | [18] 100 % of control

C=C(COC(C)(C)C)CN(C)C
inactive: [18] 94 % of control | [19] 93 % of control

O=C(Nc1cccc(F)c1)N(C1CCCCC1)C1CCCCC1
inactive: dose: 6.25 mg/kg/injection, schedule: Q01DX009 (ip), vehicle: gum acacia 96 % of control | dose: 12.5 mg/kg/injection, schedule: Q01DX009 (ip), vehicle: gum acacia 100 % of control | dose: 50.0 mg/kg/injection, schedule: Q01DX009 (ip), vehicle: gum acacia 89 % of control | dose: 400.0 mg/kg/injection, schedule: Q01DX009 (ip), vehicle: gum acacia 91 % of control

COc1ccc(C(O)c2nnc(C(O)c3ccc(OC)cc3)nn2)cc1 (stereo unspecified)
inactive: [13] 96 % of control | dose: 100.0 mg/kg/injection, schedule: Q04DX002 (ip), vehicle: Klucel (hydroxypropylcellulose) (HPC) 103 % of control | [14] 96 % of control | dose: 200.0 mg/kg/injection, schedule: Q04DX002 (ip), vehicle: Klucel (hydroxypropylcellulose) (HPC) 90 % of control | [21] 86 % of control | dose: 400.0 mg/kg/injection, schedule: Q04DX002 (ip), vehicle: Klucel (hydroxypropylcellulose) (HPC) 100 % of control

CC(=O)Oc1cc(C)[nH]c(=O)c1
inactive: [18] 101 % of control | [19] 105 % of control | [20] 101 % of control
